PubChem BioAssay (NCI)
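These data come from cells grown in 96-well plates and exposed to compound for 48 hours at five concentrations. GI50 marks 50% less growth. TGI is the concentration that stops growth completely.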

Columns and labels:
Test in all cases: NCI-60 cell line screen, 48 h
[1] = tested on: KM12 colon
[2] = tested on: UACC-62 melanoma
[3] = tested on: SK-MEL-2 melanoma
[4] = tested on: HCT-116 colon
[5] = tested on: SF-295 CNS
[6] = tested on: NCI-H23 lung
[7] = tested on: RXF 393 renal
[8] = tested on: IGROV1 ovarian
[9] = tested on: K-562 leukemia
[10] = tested on: MALME-3M melanoma

Compound | GI50 [1] | TGI [1] | GI50 [2] | TGI [2] | GI50 [3] | TGI [3] | GI50 [4] | TGI [4] | GI50 [5] | TGI [5] | GI50 [6] | TGI [6] | GI50 [7] | TGI [7] | GI50 [8] | TGI [8] | GI50 [9] | TGI [9] | GI50 [10] | TGI [10]
CC(=O)OC1COC(S[As](C)C)C(OC(C)=O)C1OC(C)=O (centres undefined) | 1.15 µM | 9.24 µM | 0.285 µM | 1.61 µM | 0.429 µM | 1.99 µM | 0.17 µM | 2.04 µM | 2.19 µM | 8.31 µM | 0.322 µM | 4.53 µM | 0.338 µM | 2.9 µM | 0.225 µM | 1.58 µM | 0.0176 µM | 0.0913 µM | 0.0159 µM | 0.287 µM
CS(=O)(=O)CCNCc1ccc(-c2ccc3ncnc(Nc4ccc(OCc5cccc(C(F)(F)F)c5)cc4)c3c2)o1 | 5.74 µM | 13.2 µM | 5.11 µM | 9.66 µM | 5.46 µM | 9.96 µM | 5.07 µM | 10 µM | 5.08 µM | 11.3 µM | 5.93 µM | 15.7 µM | 5.28 µM | 13.6 µM | 5.46 µM | > 17.5 µM | 3.18 µM | 15 µM | 5.28 µM | 10.5 µM
Cc1ccc(C)c(NC(=O)c2cc(-c3ccc([N+](=O)[O-])cc3)nc(N)n2)c1 |  | > 100 µM |  | > 100 µM |  | > 100 µM |  | > 100 µM |  | > 100 µM |  | > 100 µM |  | > 100 µM |  | > 100 µM |  | > 100 µM |  | > 100 µM
CCOC(=O)/N=C(\N)SCc1ccccc1 |  | > 100 µM |  | > 100 µM |  | > 100 µM |  | > 100 µM |  | > 100 µM |  | > 100 µM |  | > 100 µM |  | > 100 µM |  | > 100 µM |  | > 100 µM
COC(=O)CCC(=O)c1c(C)[nH]c(/C=C2\N=C(c3ccc[nH]3)C=C2OC)c1C | 0.36 µM | 1.72 µM | 1.37 µM | 3.49 µM | 0.349 µM | 1.74 µM | 0.257 µM |  | 1.62 µM | 4.08 µM | 1.79 µM | 4.7 µM | 1.46 µM | 4.03 µM | 0.365 µM | 1.6 µM | 1.24 µM | 3.18 µM | 1.49 µM | 3.47 µM
COc1cc(-c2[nH]ccc2Cl)oc1C1=C2N=C3C=C2C(C(C)C)C1CCCCCCCC3 (centres undefined) |  | 2.83 µM |  | 1.91 µM |  | 1.39 µM |  | 0.992 µM |  | 2.39 µM |  | 2.05 µM |  | 2.42 µM |  | 2.71 µM |  | 1.85 µM |  | 2.49 µM
COCCOC(=O)C1=C(C)NC2=C(C(=O)CC(c3ccccc3OC)C2)C1c1cccc(O)c1 (centres undefined) | 11.5 µM | 30 µM | 4.51 µM | 29.3 µM | 10.1 µM | 26.7 µM | 12.8 µM | 35.4 µM | 11.5 µM | 35.2 µM | 14.7 µM | 56.6 µM | 14.1 µM | 36.4 µM | 9.54 µM | 52.4 µM | 7.97 µM | > 85.4 µM | 13.9 µM | 47.6 µM
C=C1CC(CCCl)(c2ccccc2)OC1=O (centres undefined) |  | > 100 µM |  | > 100 µM |  | > 100 µM |  | > 53.9 µM |  | > 100 µM |  | > 100 µM |  | 47.7 µM |  | > 100 µM |  | > 96.7 µM |  | 56.8 µM
CCCCCCCCCCCCCCCc1cc(O)ccc1N | 7.43 µM | > 100 µM | 13.2 µM | > 100 µM | > 100 µM | > 100 µM | > 100 µM | > 100 µM | 3.46 µM | > 100 µM | > 96.2 µM | > 100 µM | 18.5 µM | > 84.6 µM | 0.416 µM | 6.61 µM | 10.7 µM | > 38 µM | > 62.1 µM | > 100 µM
CC(c1ccc(Br)cc1)C(C(=O)O)C(=O)O (centres undefined) |  | > 100 µM |  | > 100 µM |  | > 100 µM |  | > 100 µM |  | > 100 µM |  | > 100 µM |  | > 100 µM |  | > 100 µM |  | > 100 µM |  | > 100 µM
COc1ccc(-c2n[nH]nc2-c2csc3ccccc23)cc1OC | 2.28 µM | 24.1 µM | 2.77 µM | 22.2 µM | 1.44 µM | 7.65 µM | 2.84 µM | 15.3 µM | 2.33 µM | 11.7 µM | 3.93 µM | 27.9 µM | 2.11 µM | 6.71 µM | 4.21 µM | > 100 µM | 0.516 µM | > 100 µM | 13.3 µM | 62.1 µM
O=c1c2ccc3cccc4c(=O)cc(c5ccccc15)-c2c34 |  | > 100 µM |  | > 100 µM |  | > 100 µM |  | > 100 µM |  | > 100 µM |  | > 100 µM |  | > 100 µM |  | > 100 µM |  | > 100 µM |  | > 100 µM
C=C=C(C)[Si](C)(C)C |  | > 100 µM |  | > 100 µM |  | > 100 µM |  | > 100 µM |  | > 100 µM |  | > 100 µM |  | > 100 µM |  | > 100 µM |  | > 100 µM |  | > 100 µM
